Experimental data from patent US20240165093A1, “METHODS FOR TREATING FAMILIAL CHYLOMICRONEMIA SYNDROME” (AMRYT PHARMACEUTICALS INC., priority 2021, published 2024).
Where “and” joins values, the source holds several entries; their conditions need not be identical. Equal entries are not always repeated.

What was measured:
[1] = tested on: patients with Familial Chylomicronemia Syndrome (FCS); assay: Clinical study in FCS patients: hepatic fat (MRI), liver stiffness, NFS and FIB-4 scores; type: in vivo, human
Source text: (§1) Secondary endpoints include other lipid parameters, hepatic fat and liver stiffness and Chylomicron kinetics of Lomitapide in combination with other lipid lowering agents in term of changes at 26 weeks from baseline. Including: • a) Percent change in TC, non-HDL-C, LDL-C, VLDL, Lp(a), as well as apolipoproteins B and A1. • b) Safety of Lomitapide in patients with FCS assessed by changes in laboratory parameters, electrocardiogram, physical examinations and weight. • c) Record of episodes of pancreatitis • d) Change in hepatic fat liver stiffness measured by MRI and/or Transient Elastography (Fibroscan). • e) Chylomicron kinetics.
Percentage hepatic fat was determined by magnetic resonance imaging (MRI) at baseline and Week 26. The MRI protocol included a dual-phase sequence and the IDEAL IQ sequence. Post-processing software, provided by the manufacturer, was used to generate fat fraction maps. A radiologist trained in abdominal imaging imaged four 1 cm^2 regions of interest (ROIs) to measure in-phase signal intensities of the liver parenchyma. ROIs were copied from the in-phase images to the opposed-phase to ensure identical size and location. Focal hepatic lesions, major branches of portal or hepatic veins, and artifacts were avoided. The mean of the signal intensity of the liver was calculated as the average value of the four signal intensities of the liver parenchyma both in the in-phase and in the opposed phase. The hepatic fat fraction was then calculated with the following formula: 100×(signal intensityIP−signal intensityOP)/(2×signal intensityIP). Finally, ROIs were also copied in the HFF Axial IDEAL IQ map to ensure identical size and location (this map was not available in one patient). The liver ROIs placed on the IDEAL-IQ fat fraction reconstruction were used to generate estimates of percentage fat.
Noninvasive quantification of liver stiffness (LSM) in kPa (estimated fibrosis score: F0 to F1: 2-7 kPa; F2: 7.5-10 kPa; F3: 10-14 kPa; F4: […]) was measured by ultrasound-based transient elastography using FibroScan® or shear wave elastography. Non-alcoholic fatty liver disease fibrosis score (NFS) and fibrosis-4 (FIB-4) score were calculated according to Angulo et al (2007) (Angulo P, Hui J M, Marchesini G, et al. The NAFLD fibrosis score: a noninvasive system that identifies liver fibrosis in patients with NAFLD. Hepatology 2007; 45(4), which is incorporated by reference herein.
Numeric parameters were expressed as median values and 97.5% confidence intervals, while dichotomous variables were expressed as proportions. Differences in numeric parameters were evaluated by the Exact Wilcoxon-Mann-Whitney Test (R CRAN “coin” package). Differences in proportions were evaluated by the Chi Square test. Percentual reductions of numeric variables at Week 26 were expressed as median values (with 97.5% confidence intervals) of the individual patients' variations from Week 0. Correlation of TG percent reduction with lomitapide dose was calculated by partial Spearman's correlation adjusting for TG baseline absolute values (R CRAN ‘ppcor’ package). All calculations were performed by the R statistical software Version 4.04 under the RStudio Version 1.3.1093 interface.

[2] = tested on: patients with Familial Chylomicronemia Syndrome (FCS); assay: Clinical study in FCS patients: safety and tolerability (adverse events, liver function tests, maximum dose); type: in vivo, human
Procedure: (§2) Treatment was initiated at 5 mg once daily, and the dose titrated based on acceptable safety/tolerability. After a minimum of 2 weeks at 5 mg once daily the dose was then titrated at a minimum of 4-week intervals to 10 mg, 20 mg, 40 mg, and 60 mg/day (e.g., as shown in the table below) or until an individually determined maximum dose (e.g., in the range of 5-60 mg/day) was reached based on lipid profile, and safety/tolerability. Dose adjustments were also made according to liver transaminase levels. If subjects experienced confirmed alanine aminotransferase (ALT) or aspartate aminotransferase (AST) elevations between 3-5×ULN, or >100 U/L but <200 U/L above the baseline value, the dose of lomitapide was reduced to the previously tolerated dose level, with the possibility to re-escalate dose once transaminase elevations were resolved. Once a maximum dose was established, patients remained on this dose up to Week 26.
(§3) Lipid levels and safety indices, including liver function tests, were evaluated at baseline, before each dose increase, and then every 4 weeks until week 26.
as §1
Adverse events (AEs) were coded using MedDRA, Version 11.0. AEs were judged by the investigators as not related, unlikely, possibly, probably or definitely related to study drug and were reviewed regularly by an independent Data and Safety Monitoring Board.

[3] = tested on: patients with Familial Chylomicronemia Syndrome (FCS); assay: Clinical study of lomitapide in patients with FCS: fasting lipids, lipoproteins, pancreatitis episodes (26 weeks); type: in vivo
Source text: This clinical study evaluated the safety, tolerability, and efficacy of Lomitapide in patients with Familial Chylomicronemia Syndrome (FCS).
Patients were screened for eligibility between 12 to 6 weeks before the first dose of Lomitapide (screening period). After screening period, all enrolled patients entered a run-in phase of at least 6 weeks during which lipid-lowering therapy, daily dietary supplementation of vitamin E, essential fatty acids and a low-fat diet are instituted and stabilized. At the end of the run-in phase, the patients entered into a 26-week efficacy phase, during which they receive lomitapide in addition to their lipid-lowering therapy. Patients must follow a diet comprising <10% energy from fat per day during all the study.
All patients who meet the eligibility criteria, and after 6-week diet period (run-in) were treated with Lomitapide 5 mg, 10 mg, 15 mg, 20 mg, 30 mg, 40 mg, 50 mg up to 60 mg daily based on lipid profile and tolerability. Patients remain at their maximum dose until the end of 26 weeks.
as §2, §3
The Primary Endpoint was percent change in tryglycerides (TG) at the maximum tolerated dose compared to baseline after 26 weeks of treatment in combination with other lipid lowering therapy in patients with Familial Chylomicronemia Syndrome (FCS).
as §1
To enable collection of data for the primary and other endpoints a fasting lipid and safety panel, including liver function tests, was obtained at baseline, prior to each dose escalation, and every 4 weeks thereafter until Week 26. Blood was drawn at baseline and at each visit following a 12 hour fast. Testing included a standard metabolic panel, a complete blood count, urinalysis. Ten patients underwent a metabolic study to determine postprandial chylomicron metabolism and fatty acid profile. Available samples were separated by centrifugation and immediately stored at −80° C. and were shipped in dry ice at the end of the study for analysis.
Lipid and lipoprotein analyses were conducted on serum samples. Total cholesterol (TC), high density lipoprotein-cholesterol (HDL-C), and TGs were measured enzymatically. Non-HDL-C was calculated by subtracting HDL-C levels from TC levels. ApoA-I, apoB and Lp(a) were measured by immunonephelometry. […]

[4] = 18 subjects, baseline to Week 26

SMILES: O=C(NC1CCN(CCCCC2(C(=O)NCC(F)(F)F)c3ccccc3-c3ccccc32)CC1)c1ccccc1-c1ccc(C(F)(F)F)cc1 [lomitapide, N-(2,2,2-trifluoroethyl)-9-[4-[4-[[[4′(trifluoromethyl) [1,1′-biphenyl]-2-yl]carbonyl]amino]-1-piperidinyl]butyl]-9H-fluorene-9carboxamide]
- Hepatic fat content on MRI, median at Week 26 ([1]; 9 subjects, Week 26 (baseline 12.0)): 32.5%
- Hepatic fat content on MRI, individual change from baseline, % ([1]; 9 subjects, baseline to Week 26): +146.4%
- LSM (liver stiffness measurement), median at Week 26 ([1]; 14 subjects, Week 26 (baseline 5.7)): 5.5 kPa
- FIB-4, median at Week 26 ([1]; 18 subjects, Week 26 (baseline 0.76)): 1.03
- NFS, median at Week 26 ([1]; 18 subjects, Week 26 (baseline 0.786)): 0.428
- FIB-4, individual change from baseline, % [1, 4]: +38.44%
- NFS, individual change from baseline, % [1, 4]: −51.69%
- non-invasive liver fibrosis measurements (liver stiffness, FIB-4 and NFS scores), change ([1]; baseline to Week 26, in words): No significant changes
- hepatic fat content at week 26 in 3 patients with an increase ([1]; liver MRI): 30-50%
- patients completing the study (26 weeks) ([2]; 18 enrolled): 100%
- elevations in bilirubin or alkaline phosphatase levels ([2]; 26 weeks): No subject experienced elevations
- tolerability of treatment ([2]; 26 weeks, in words): well tolerated
- permanent discontinuation due to liver transaminase elevations ([2]; increases managed by dose reduction or temporary interruption): No subject discontinued treatment permanently
- median lomitapide maximum dose ([2]; individually determined by lipid profile, safety and tolerability, by Week 26, 18 subjects): 35 mg/day
- severity of adverse events ([2]; mostly gastrointestinal tolerability and liver enzyme elevations): mild to moderate
- episodes of acute pancreatitis or severe abdominal pain during treatment ([3]; 26 weeks, all patients with history of acute pancreatitis): No patient experienced an episode of acute pancreatitis or severe abdominal pain
- range of TG decrease in the six subjects with decreases up to 50% ([3]; Week 26): 18.25-49.71%
- reduction in TG levels from baseline ([3]; Week 26, n=18, p<0.0001): 70.5%
- patients with TG reduction >70% ([3]; Week 26, nine of 18 patients): 50%
- subjects achieving TG levels <750 mg/dL (<8.5 mmol/L) ([3]; Week 26, of 18): Thirteen
- subjects with decreases in TG up to 50% ([3]; Week 26, six of 18 subjects): 33.3%
- patients achieving TG levels <500 mg/dL (<5.6 mmol/L) ([3]; Week 26, ten of 18): 55.6%
- patients with TG reduction >50% ([3]; Week 26, twelve of 18 patients): 66.7%
- mean dose when patients crossed the threshold of <500 mg/dL triglycerides ([3]; daily dose): 27 mg
- mean dose when patients crossed the threshold of <750 mg/dL triglycerides ([3]; daily dose): 24 mg
- mean dose when patients crossed the threshold of <1000 mg/dL triglycerides ([3]; daily dose): 18 mg
- median dose when patients crossed the threshold of <500 mg/dL triglycerides ([3]; daily dose): 20 mg
- median dose when patients crossed the threshold of <750 mg/dL triglycerides ([3]; daily dose): 20 mg
- median dose when patients crossed the threshold of <1000 mg/dL triglycerides ([3]; daily dose): 10 mg
- Lp(a) levels, difference from baseline to Week 26 ([3]; in words): No significant differences
- hsCRP levels, difference from baseline to Week 26 ([3]; in words): No significant differences
- fasting triglyceride levels compared to baseline ([3]; in words, over 26 weeks): significant reduction
- patients achieving triglyceride plasma levels <1000 mg/dL ([3]; n=14 of 18): 77.8%
- hsCRP, median at Week 26 ([3]; n=18, Week 26 (baseline 1.2)): 1.24 mg/L
- Lp(a), median at Week 26 ([3]; n=18, Week 26 (baseline 6)): 5.5 nmol/L
- HDL-C, median at Week 26 ([3]; n=18, Week 26 (baseline 16)): 18 mg/dL
- ApoB, median at Week 26 ([3]; n=18, Week 26 (baseline 81.85)): 39.25 mg/dL
- ApoA-I, median at Week 26 ([3]; n=18, Week 26 (baseline 93.7)): 74.95 mg/dL
- non-HDL-C, median at Week 26 ([3]; n=18, Week 26 (baseline 184)): 90.0 mg/dL
- TC, median at Week 26 ([3]; n=18, Week 26 (baseline 205.5)): 94 mg/dL
- ApoA-I, median of individual changes from baseline % ([3]; n=18, baseline to Week 26): −28.1% and −23.0%
- ApoB, median of individual changes from baseline % ([3]; n=18, baseline to Week 26): −43.8%
- HDL-C, median of individual changes from baseline % ([3]; n=18, baseline to Week 26): 20.7% and +20.7%
- Lp(a), median of individual changes from baseline % ([3]; n=18, baseline to Week 26): +40.5%
- TC, median of individual changes from baseline % ([3]; n=18, baseline to Week 26): −51.7%
- hsCRP, median of individual changes from baseline % ([3]; n=18, baseline to Week 26): 9.8%
- non-HDL-C, median of individual changes from baseline % ([3]; n=18, baseline to Week 26): −50.0%
- TG, median of individual changes from baseline % ([3]; n=18, baseline to Week 26, primary endpoint): −70.5%
- TG, median at Week 26 ([3]; n=18 FCS patients, fasting, lomitapide at maximum tolerated dose plus lipid-lowering therapy, Week 26 (baseline 1803.5)): 305.0 mg/dL
